The data set deals with CCRIS mutagenicity, Ames/micronucleus/aberration tests. The data set is described as follows: CCRIS mutagenicity studies.
Setting [1] is: Test System: AMES SALMONELLA TYPHIMURIUM, Strain/Indicator: TA98, Metabolic Activation: NONE, Method: STANDARD PLATE.
[2] abbreviates: Test System: AMES SALMONELLA TYPHIMURIUM, Strain/Indicator: TA100, Metabolic Activation: NONE, Method: STANDARD PLATE.
[3] abbreviates: Test System: E. COLI, Strain/Indicator: WP2 UVRA, Metabolic Activation: HAMSTER, LIVER, S-9, AROCLOR 1254, Method: STANDARD PLATE.
Where [4] appears, read: Test System: E. COLI, Strain/Indicator: WP2 UVRA, Metabolic Activation: HAMSTER, LIVER, S-9, Method: STANDARD PLATE.
Setting [5] is: Test System: E. COLI, Strain/Indicator: WP2 UVRA, Metabolic Activation: MOUSE, LIVER, S-9, AROCLOR 1254, Method: STANDARD PLATE.
[6] abbreviates: Test System: E. COLI, Strain/Indicator: WP2 UVRA, Metabolic Activation: MOUSE, LIVER, S-9, Method: STANDARD PLATE.
[7] abbreviates: Test System: E. COLI, Strain/Indicator: WP2 UVRA, Metabolic Activation: NONE, Method: STANDARD PLATE.
The mark [8] stands for this setting: Test System: E. COLI, Strain/Indicator: WP2 UVRA, Metabolic Activation: RAT, LIVER, S-9, AROCLOR 1254, Method: STANDARD PLATE.
[9] abbreviates: Test System: E. COLI, Strain/Indicator: WP2 UVRA, Metabolic Activation: RAT, LIVER, S-9, Method: STANDARD PLATE.

The structures appear in SMILES notation. The source made the active and inactive calls. No rule for the calls is given here.

Experimental findings from PubChem BioAssay AID1259407 (Chemical Carcinogenesis Research Information System (CCRIS), 2018) are described below.

Take `CN(N=O)C(=O)c1c(N(C)N=O)ncn1C`: the mutagenic call is, setting by setting: under setting [1], “inactive; negative”; (Test System: AMES SALMONELLA TYPHIMURIUM, Strain/Indicator: TA98, Metabolic Activation: S-9, Method: STANDARD PLATE) “inactive; negative”; under setting [2], “active; positive”; (Test System: AMES SALMONELLA TYPHIMURIUM, Strain/Indicator: TA100, Metabolic Activation: S-9, Method: STANDARD PLATE) “active; positive”; (Test System: AMES SALMONELLA TYPHIMURIUM, Strain/Indicator: TA102, Metabolic Activation: NONE, Method: STANDARD PLATE) “active; positive”; (Test System: AMES SALMONELLA TYPHIMURIUM, Strain/Indicator: TA102, Metabolic Activation: S-9, Method: STANDARD PLATE) “active; positive”. In addition, the mutagenic call was “active; positive” (Test System: AMES SALMONELLA TYPHIMURIUM, Strain/Indicator: TA1535, Metabolic Activation: NONE, Method: STANDARD PLATE); “active; positive” (Test System: AMES SALMONELLA TYPHIMURIUM, Strain/Indicator: TA1535, Metabolic Activation: S-9, Method: STANDARD PLATE); “inactive; negative” (Test System: AMES SALMONELLA TYPHIMURIUM, Strain/Indicator: TA1537, Metabolic Activation: NONE, Method: STANDARD PLATE); “inactive; negative” (Test System: AMES SALMONELLA TYPHIMURIUM, Strain/Indicator: TA1537, Metabolic Activation: S-9, Method: STANDARD PLATE).
Regarding `COc1ccc(C(c2ccc(OC)cc2)C(Cl)(Cl)Cl)cc1`, the mutagenic call was “inactive; negative” (Test System: CHINESE HAMSTER OVARY, Strain/Indicator: CHO-K1-BH4 (HGPRT)/6-THIOGUANINE, Metabolic Activation: NONE, Method: SUSPENSION/PLATE); “inactive; negative” (Test System: CHINESE HAMSTER OVARY, Strain/Indicator: CHO-K1-BH4 (HGPRT)/6-THIOGUANINE, Metabolic Activation: S-9, Method: SUSPENSION/PLATE); “inactive; negative” under setting [3]; “inactive; negative” under setting [4]; “inactive; negative” under setting [5]; “inactive; negative” under setting [6]. For the same molecule, the mutagenic call is, setting by setting: under setting [7], “inactive; negative”; under setting [8], “inactive; negative”; under setting [9], “inactive; negative”; (Test System: MOUSE LYMPHOMA, Strain/Indicator: L5178Y (TK+/TK-), Metabolic Activation: NONE, Method: SUSPENSION/PLATE) “inactive; negative”; (Test System: MOUSE LYMPHOMA, Strain/Indicator: L5178Y (TK+/TK-), Metabolic Activation: RAT, LIVER, S-9, AROCLOR 1254, Method: SUSPENSION/PLATE) “active; positive”; (Test System: MOUSE LYMPHOMA, Strain/Indicator: L5178Y (TK+/TK-), Metabolic Activation: RAT, LIVER, S-9, Method: SUSPENSION/PLATE) “active; positive”. For the same molecule, the mutagenic call (Test System: MOUSE LYMPHOMA, Strain/Indicator: L5178Y (TK+/TK-), Metabolic Activation: S-9, Method: SUSPENSION/PLATE) is “active; positive”.
`COc1ccc(N)c(C)c1`: the mutagenic call runs as follows: (Test System: AMES SALMONELLA TYPHIMURIUM, Strain/Indicator: TA98, Metabolic Activation: HAMSTER, LIVER, S-9, AROCLOR 1254 (30%), Method: PREINCUBATION) “inactive; negative”; (Test System: AMES SALMONELLA TYPHIMURIUM, Strain/Indicator: TA98, Metabolic Activation: NONE, Method: PREINCUBATION) “inactive; negative”; (Test System: AMES SALMONELLA TYPHIMURIUM, Strain/Indicator: TA98, Metabolic Activation: RAT, LIVER, S-9, AROCLOR 1254 (30%), Method: PREINCUBATION) “inactive; negative”; (Test System: AMES SALMONELLA TYPHIMURIUM, Strain/Indicator: TA100, Metabolic Activation: HAMSTER, LIVER, S-9, AROCLOR 1254 (30%), Method: PREINCUBATION) “active; positive”; (Test System: AMES SALMONELLA TYPHIMURIUM, Strain/Indicator: TA100, Metabolic Activation: NONE, Method: PREINCUBATION) “inactive; negative”; (Test System: AMES SALMONELLA TYPHIMURIUM, Strain/Indicator: TA100, Metabolic Activation: RAT, LIVER, S-9, AROCLOR 1254 (30%), Method: PREINCUBATION) “inactive; negative”. Also, the mutagenic call runs as follows: under setting [3], “inactive; negative”; under setting [4], “inactive; negative”; under setting [5], “inactive; negative”; under setting [6], “inactive; negative”; under setting [7], “inactive; negative”; under setting [8], “inactive; negative”. The mutagenic call under setting [9] is “inactive; negative”.
As to `C[C@@]12CCC=C(C=O)[C@]1(C=O)C2`, the mutagenic call is “active; positive” under setting [1] and “active; positive” under setting [2].
Take `ClCc1cccc2c1-c1cccc3cccc-2c13`: the mutagenic call is “active; positive” under setting [1] and “active; positive” under setting [2].
For the molecule `CC(=O)CCCCn1c(=O)c2c(ncn2C)n(C)c1=O`, the mutagenic call was “active; positive (structural changes)” (End Point: IN VITRO CHROMOSOMAL ABERRATIONS, Test System: HUMAN PERIPHERAL BLOOD LYMPHOCYTES, Metabolic Activation: NONE); “active; positive (structural changes)” (End Point: IN VITRO CHROMOSOMAL ABERRATIONS, Test System: V79 CELLS, Metabolic Activation: NONE); “active; positive” (End Point: IN VITRO MICRONUCLEUS, Test System: HUMAN PERIPHERAL BLOOD LYMPHOCYTES, Metabolic Activation: NONE); “active; positive” (End Point: IN VITRO MICRONUCLEUS, Test System: V79 CELLS, Metabolic Activation: NONE); “inactive; negative” (Test System: CHINESE HAMSTER V-79, Strain/Indicator: V-79 (HGPRT)/6-THIOGUANINE, Metabolic Activation: NONE); “inactive; negative” (Test System: CHINESE HAMSTER V-79, Strain/Indicator: V-79 (HGPRT)/6-THIOGUANINE, Metabolic Activation: S-9).
Turning to `CC(C)Nc1nc(N)nc(Cl)n1`, the mutagenic call reads like this: (Test System: AMES SALMONELLA TYPHIMURIUM, Strain/Indicator: TA97, Metabolic Activation: NONE, Method: STANDARD PLATE) “inactive; negative”; under setting [1], “inactive; negative”; under setting [2], “inactive; negative”.
As to `CCNc1cc2oc(=O)cc(C)c2cc1C`, the mutagenic call runs as follows: (Test System: AMES SALMONELLA TYPHIMURIUM, Strain/Indicator: TA1538, Metabolic Activation: NONE, Method: STANDARD PLATE) “inactive; negative”; (Test System: AMES SALMONELLA TYPHIMURIUM, Strain/Indicator: TA1538, Metabolic Activation: RAT, LIVER, S-9, AROCLOR 1254, Method: STANDARD PLATE) “inactive; negative”.
